Laboratory results as given in US11401255B2, “Small molecule activators of Parkin enzyme function” (Mayo Foundation for Medical Education and Research, priority 2016, dated 2022).
Where two headings read alike, the source gives them in different places.

What was measured:
FLAG-Parkin C431S = FLAG-Parkin C431S (Homo sapiens (Human), UniProt O60260, C431S); experiment: Ub-charging of FLAG-Parkin C431S (MSD assay); assay type: cell-based; settings: 5 μM, 2 h before 3.5 μM CCCP
Protocol: Ubiquitin charging of Parkin was monitored by ELISA-like MesoScale Discovery assay that uses electrochemiluminescence. Plates were coated with Flag antibody and incubated with lysates from 3×FLAG-Parkin C431S cells that had been pretreated for 2 h with 5 μM of Compounds 1, 2, 3, 4, and 31 or DMSO (left, −) before incubating them for another 2 h with (+) or without (−) low-dose (3.5 μM) CCCP. Positive control (PC) cells were treated with 10 μM CCCP. After washing, pS65-Ub antibody was added together with a sulfo-tagged anti-rabbit antibody. Values were normalized to the PC (10 μM CCCP) and negative control (−). Statistical analysis was performed by one-way ANOVA with Tukey's post-hoc test. ****, p<0.0001.
For ELISA assays, 96-well standard bind plates (Mesoscale Discovery) were coated with antibodies (FLAG, Sigma, F3165 or pSer65-Ub, both 1:250) in bicarbonate buffer (15 mM Na2CO3, 35 mM NaHCO3, pH 9.4) overnight and blocked with 5% BSA in TBS containing 0.02% Tween-20 (TBST). For Parkin Ub-charging, cell lysates were prepared in RIPA buffer (50 mM Tris pH 8.0, 150 mM NaCl, 1% NP-40, 0.5% deoxycholate, 0.1% sodium dodecyl sulphate (SDS)). 25 μg of lysates were added to the plates and incubated for 2 h. To quantify pSer65-Ub, cell lysates were prepared in NP-40 buffer (50 mM Tris pH 7.6, 150 mM NaCl, and 0.5% NP-40) and diluted to 0.18% NP-40 with 1% BSA in TBST. 6.25 μg of lysates were added to the plates overnight and incubated at 4° C. After primary antibody incubation, plates were washed and incubated with mouse detection antibodies (Ub, CST, #3933 or Ub, Millipore, MAB 150 both 1:250) for 1 h at RT. Secondary sulfo-tag conjugated antibodies were incubated for 1 h in 1% BSA/TBST before plates were measured in 2× READ buffer using a Mesoscale Discovery Sector Imager 2400 (both Mesoscale Discovery).

TA 1535 = tested on: TA 1535
Text: (§1) The test used amino acid-dependent strains of Salmonella typhimurium and Escherichia coli to detect point mutations which involved substitution, addition or deletion of one or a few DNA base pairs. Point mutations were introduced in the histidine (Salmonella typhimurium) or the tryptophan (Escherichia coli) operon, making the tester strains incapable of producing these amino acids. The test detected mutations that revert the mutations present in the bacteria, restoring the functional capability to synthesize histidine or tryptophan. The revertant bacteria were detected by the ability to grow in the absence of the amino acid required by the parent test strain. A mutagenic potential of a tested compound was assessed by exposing these bacterial strains to different concentrations of the compounds and estimating number of revertant colonies grown in the absence (trace quantities) of the amino acid.
(§2) DMSO was used as the negative control.
(§3) For each experiment, tester strain cultures were grown overnight in Oxoid nutrient broth #2 at 37° C. with shaking at 235 rpm to a density of 1-2×10^9 colony forming units/mL (OD540˜2).
(§4) The tester strain (10 μL of night culture) was mixed with the test agent (10 µL of the DMSO stock) and GM liquid medium (30 μL). The obtained mixture was incubated at room temperature for 5 min in a sterile 1.5 mL tube. Then, to the tube was added 200 μL of molten top agar stored at 44° C. to prevent solidifying. After mixing with a pipette, the mixture was poured onto the surface of a GM agar plate (2.0 mL of GM agar per plate). After solidifying the top agar, the plate was inverted and incubated at 37° C. for 48 hours. Then, results were expressed as number of revertant colonies per plate.

HepG2 cells = experiment: Cytotoxicity assay (resazurin), HepG2 cell proliferation inhibition; assay type: cell-based; settings: Homo sapiens, 24 hours
Protocol: Compounds 1-4 and 31 were tested in a cytotoxicity assay. The assay was based on the conversion of the non-fluorescent dye resazurin to the fluorescent compound rezorufin in the reducing environment of living cell cytoplasm. The more living cells in a sample result in higher fluorescence, while less living cells result in lower fluorescence.
HepG2 cells were cultivated in a humidified atmosphere at 37° C. and 5% CO2 in 75 cm^2 flasks to 80-90% of confluence and split twice per week with a subcultivation ratio of 1:4. The cell layer was rinsed with PBS to remove all traces of serum. Then 3.0 mL of solution containing 0.25% (w/v) trypsin and 0.53 mM EDTA was added to the flask and incubated about 10 minutes. The HepG2 cells were detached using a scraper and re-suspended in DMEM containing 10% FBS and 2 mM glutamine. The cell suspension with a final concentration of 5×10^5 cells/mL was dispensed into sterile 96-well black wall clear flat bottom plates as previously described (McMillian et al. (2002) Cell Biol. Toxicol. 18(3):157-173; Mulvihill et al. (2009) Future Med. Chem. 1(6):1153-1171) and the test compounds were added.
The compound DMSO stock solutions were diluted with PBS to achieve an intermediate concentration of 1 mM. The cell proliferation assessment was performed at different concentrations of compounds ranging from 0.1 μM to 100 μM. Doxorubicin at a final concentration of 20 μM was used as a positive control. After compound addition, cells were incubated for 24 hours in a humidified atmosphere at 37° C. and 5% CO2.
Resazurin was added to the final concentration (50 μM) and incubated for 4 hours under the same conditions. Presence of rezorufin (cell viability) was quantified by measuring fluorescence (Ex—490 nm, Em—540 nm; see Vega-Avila and Pugsley (2011) Proc. West Pharmacol. Soc. 54:10-14).
The percent of cell proliferation inhibition was calculated by applying the following formula: […]

TA 100 = experiment: Ames Test, strain TA 100
Text: as §1, §2, §3, §4

SMILES	Ub-charging of FLAG-Parkin C431S (MSD assay) (FLAG-Parkin C431S)	Fold increase (over baseline) (TA 1535; TA 1535, 50 μM)	Mean ± SD (TA 1535; TA 1535, 50 μM)	Fold increase (over baseline) (TA 1535; TA 1535, 100 μM)	Mean ± SD (TA 1535; TA 1535, 100 μM)	Fold increase (over baseline) (TA 1535; TA 1535, 200 μM)	Mean ± SD (TA 1535; TA 1535, 200 μM)	inhibition at 0.1 µM (HepG2 cells) [%]	inhibition at 0.3 µM (HepG2 cells) [%]	inhibition at 1 µM (HepG2 cells) [%]	inhibition at 3 µM (HepG2 cells) [%]	inhibition at 10 µM (HepG2 cells) [%]	inhibition at 30 µM (HepG2 cells) [%]	inhibition at 100 µM (HepG2 cells) [%]	Fold increase (over baseline) (TA 100; TA 100, 50 μM)	Mean ± SD (TA 100; TA 100, 50 μM)	Fold increase (over baseline) (TA 100; TA 100, 100 μM)	Mean ± SD (TA 100; TA 100, 100 μM)	Fold increase (over baseline) (TA 100; TA 100, 200 μM)	Mean ± SD (TA 100; TA 100, 200 μM)	also measured
CC(C)c1nccn1CC(=O)Nc1ccc(-c2ccccc2)cc1 [Compound 2]	enhanced Ub-charging	0	0 ± 0 revertant colonies per plate	0.68	3 ± 0 revertant colonies per plate	0.23	1 ± 0 revertant colonies per plate	-1.8	2.8	1.2	5.6	2.6	2.4	14.7	1.37	8.5 ± 6.36 revertant colonies per plate	0.97	6 ± 2.83 revertant colonies per plate	1.61	10 ± 0 revertant colonies per plate	–
Cc1nc2c(c(N3CCCN(Cc4ccccc4)CC3)n1)CCCC2 [Compound 31]	enhanced Ub-charging	0.57	2.5 ± 2.12 revertant colonies per plate	0.23	1 ± 0 revertant colonies per plate	0.57	2.5 ± 0.7 revertant colonies per plate	2	-0.8	-1.5	-0.9	-2.2	-5.4	-17.7	1.04	6.5 ± 0.7 revertant colonies per plate	0.97	6 ± 0 revertant colonies per plate	0.97	6 ± 1.41 revertant colonies per plate	–
CC(C)(C)Sc1ccc(NC(=O)Cn2ccnc2)cc1 [Compound 3]	enhanced Ub-charging	0.34	1.5 ± 0.7 revertant colonies per plate	0	0 ± 0 revertant colonies per plate	>34	>150 revertant colonies per plate	-2.1	0.2	2.4	3.9	2.6	-0.1	0.5	0.85	5.5 ± 0.7 revertant colonies per plate	>32	>200 revertant colonies per plate	>48	>300 revertant colonies per plate	mutagenic activity (TA 1535; TA 1535, 200 μM): mutagenic activity; mutagenic activity (TA 100; TA 100, both 100 and 200 μM): mutagenic activity
O=C(Cn1ccnc1-c1ccccn1)Nc1ccc(-c2ccccc2)cc1 [Compound 4]	enhanced Ub-charging	0.23	1 ± 0 revertant colonies per plate	0.34	1.5 ± 0.7 revertant colonies per plate	0	0 ± 0 revertant colonies per plate	-1.8	0.1	0.8	5.4	-1.4	-3.8	-5.5	0.89	5.5 ± 2.12 revertant colonies per plate	1.2	7.5 ± 3.54 revertant colonies per plate	0.65	4 ± 1.41 revertant colonies per plate	–
O=C(Cn1cnc2c1CCCC2)Nc1ccc(-c2ccccc2)cc1 [Compound 1]	enhanced Ub-charging	0.23	1 ± 0 revertant colonies per plate	0	0 ± 0 revertant colonies per plate	0	0 ± 0 revertant colonies per plate	-0.1	-2	-0.6	-1.8	-3.9	-2.5	0.1	0	0 ± 0 revertant colonies per plate	0	0 ± 0 revertant colonies per plate	0	0 ± 0 revertant colonies per plate	–
